Where two headings read alike, the source gives them in different places.
Assay: physchem
Type: physicochemical
Conditions: for chromatographic logP: read-out: logP
How it was run: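 Following EEC Directive 79/831 Annex V.A8, logP is obtained from retention on a 1.8 micron C18 column (50×4.6 mm) at 55 °C and 2.0 ml/min. Elution ran 10→95% acetonitrile (0.1% formic acid) against water (0.09% formic acid) in 4.25 min, held 1.25 min; mass detection used.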

[1] = HPLC phase inversion (reversed-phase) C18 column, HPLC method a), eluent acetonitrile/water with formic acid
[2] = HPLC phase inversion (reversed-phase) C18 column, HPLC on C18 phase inversion column, method a)
[3] = HPLC method a), eluent acetonitrile/water with formic acid

SMILES | logP | other results
CC(C)CNC(=O)c1cc(NC(=O)c2c(C(F)(F)F)c(C(F)(F)C(F)(F)F)nn2C)ccc1Cl [Ik-92] | 3.90^a) | –
CSc1c(Br)cc(NC(=O)c2c(C(F)(F)F)c(C(F)(F)C(F)(F)F)nn2C)cc1C(=O)NCC(F)(F)F [Ik-200] | 4.22^a) | –
O=C(NCC(F)(F)F)c1cc(NC(=O)c2cnc(C(F)(F)F)nc2C(F)(F)F)ccc1Cl [Ib-4] | 3.14^a) | –
Cc1nc(C(F)(F)F)ncc1C(=O)Nc1ccc(Cl)c(C(=O)NCC=CCl)c1 [Ib-21] | 2.69^a) | –
Cn1nc(C(F)(F)F)c(C(F)(F)F)c1C(=O)Nc1ccc(Cl)c(C(=O)NCC(F)(F)F)c1 [Ik-125, N-{4-Chloro-3-[(2,2,2-trifluoroethyl)carbamoyl]-phenyl}-1-methyl-3,4-bis(trifluoromethyl)-1H-pyrazole-5-carboxamide] | – | chromatographic logP [1]: 3.25; chromatographic logP [2]: 3.25
Cn1nc(C(F)(F)C(F)(F)C(F)(F)F)c(Br)c1C(=O)Nc1ccc(Cl)c(C(=O)NC2CC2)c1 [Ik-73] | 3.58^a) | –
O=C(NCc1ccccc1)c1cc(NC(=O)c2cnc(C(F)(F)C(F)(F)F)nc2C(F)F)ccc1Cl [Ib-29] | 3.51^a) | –
Cn1nc(C(F)(F)C(F)(F)F)c(C(F)(F)F)c1C(=O)Nc1cc(F)c(I)c(C(=O)NC2CC2)c1 [Ik-225] | 3.63^a) | –
CCN(C(=O)c1c(C(F)(F)F)c(C(F)(F)C(F)(F)F)nn1C)c1ccc(Cl)c(C(=O)NC2CC2)c1 [Ik-136] | 3.55^a) | –
CCC(C)NC(=O)c1cc(NC(=O)c2c(C(F)(F)F)c(C(F)(F)C(F)(F)F)nn2C)ccc1Cl (stereo not drawn) [Ik-91] | 3.87^a) | –
C=CCNC(=O)c1cc(NC(=O)c2ccc(C(F)(F)F)nc2Cl)c(C)cc1Cl [Ir-7] | 2.68^a) | –
Cn1nc(C(F)(F)C(F)(F)F)c(C(F)(F)F)c1C(=O)Nc1cc(C(=O)NC2CC2)c(F)cc1Cl [Ik-148] | 3.53^a) | –
Cc1nc(C(F)(F)F)ncc1C(=O)Nc1ccc(Cl)c(C(=O)NC2CC2)c1 [Ib-19] | 2.24v | –
Cc1nc(C(=O)Nc2ccc(Cl)c(C(=O)O)c2)c(C(F)(F)F)c(C(F)(F)C(F)(F)F)n1 [2-chloro-5-({[2-methyl-6-(pentafluoroethyl)-5-(trifluoromethyl)pyrimidin-4-yl]carbonyl}amino)benzoic acid] | – | chromatographic logP [1]: 3.3
Cn1ccc(C(F)(F)C(F)(F)C(F)(F)C(F)(F)F)n1 [1-Methyl-3-nonafluorobutyl-1H-pyrazole] | – | chromatographic logP [3]: 3.38
Cn1nc(OCC(F)(F)F)cc1C(=O)Nc1ccc(Cl)c(C(=O)NC2CC2)c1 [Ik-247] | 2.55^a) | –
O=C(NCC(F)(F)F)c1cc(NC(=O)c2cnc(C(F)(F)C(F)(F)F)nc2C(F)F)ccc1Cl [Ib-28] | 3.27^a) | –
Cn1nc(C(F)(F)C(F)(F)F)c(C(F)(F)F)c1C(=O)Nc1cc(Cl)c(I)c(C(=O)NCC(F)(F)F)c1 [Ik-206] | 4.18^a) | –
O=C(O)c1cnc(C(F)(F)C(F)(F)C(F)(F)F)nc1C(F)(F)F [2-(Heptafluoropropyl)-4-(trifluoromethyl)pyrimidine-5-carboxylic acid] | – | chromatographic logP [3]: 2.23
CC#CC(C)(C)NC(=O)c1cc(NC(=O)c2c(C(F)(F)F)c(C(F)(F)C(F)(F)F)nn2C)ccc1Cl [Ik-81] | 4.03^a) | –
Cn1cc(Br)c(C(F)(Cl)C(F)(F)F)n1 (stereo not drawn) [4-Bromo-1-methyl-3-(1-chloro-1,2,2,2-tetrafluoroethyl)-1H-pyrazole] | – | chromatographic logP [1]: 3.17
Cn1nc(-c2ccc(C(F)(F)F)cc2)c(Br)c1C(=O)Nc1ccc(Cl)c(C(=O)NCC(F)(F)F)c1 [Ik-253] | 3.99^a) | –
Cn1nc(C(F)(F)C(F)(F)F)c(C(F)(F)F)c1C(=O)Nc1cc(Br)c(Br)c(C(=O)NC2CC2)c1 [Ik-207] | 3.84^a) | –

SMILES | logP | other results
Cn1nc(C(F)(F)C(F)(F)F)c(C(F)(F)F)c1C(=O)Nc1ccc(OC(F)F)c(C(=O)NC2CC2)c1 [Ik-25] | 3.49^a) | –
Cn1nc(C(F)(F)C(F)(F)F)c(C(F)(F)F)c1C(=O)Nc1cc(F)c(I)c(C(=O)NCc2ccccc2)c1 [Ik-227] | 4.20^a) | –
Cc1nc(C(F)(F)C(F)(F)F)nc(C)c1C(=O)Nc1ccc(Cl)c(C(=O)NCC(F)(F)F)c1 [Ib-12] | 3.22^a) | –
Cn1nc(C(F)(F)C(F)(F)F)c(Br)c1C(=O)O [4-Bromo-1-methyl-3-pentafluoroethyl-1H-pyrazole-5-carboxylic acid] | – | chromatographic logP [1]: 4.69
Cn1nc(C(F)(F)C(F)(F)F)c(C(F)(F)F)c1C(=O)Nc1ccc(F)c(C(=O)NC2CC2)c1 [Ik-155] | 3.31^a) | –
Cn1nc(C(O)C2CC2)c(C(F)(F)F)c1C(=O)Nc1ccc(Cl)c(C(=O)NC2CC2)c1 (stereo not drawn) [N-[4-chloro-3-(cyclopropylcarbamoyl)phenyl]-3-[cyclopropyl(hydroxy)methyl]-1-methyl-4-(trifluoromethyl)-1H-pyrazole-5-carboxamide] | – | chromatographic logP [1]: 2
O=C(Nc1cc(Br)c(Cl)c(C(=O)NC2CC2)c1)c1cnc(C(F)(F)C(F)(F)F)nc1C(F)(F)F [Ib-36] | 3.62^a) | –
Cn1nc(C(F)(F)C(F)(F)C(F)(F)C(F)(F)F)cc1C(=O)O [1-Methyl-3-nonafluorobutyl-1H-pyrazole-5-carboxylic acid] | – | chromatographic logP [3]: 3.01
Cc1nc(C(F)(F)C(F)(F)F)nc(C)c1C(=O)Nc1ccc(Cl)c(C(=O)NC2CC2)c1 [Ib-8] | 2.82^a) | –
Cn1nc(C(F)(F)C(F)(F)F)c(C(F)(F)F)c1C(=O)Nc1ccc(OC(F)F)c(C(=O)O)c1 [Ik-104] | 3.23^a) | –
Cn1nc(OC(F)F)c(I)c1C(=O)Nc1ccc(Cl)c(C(=O)NCC(F)(F)F)c1 [Ik-241] | 2.92^a) | –
CCn1nc(C(F)(F)C(F)(F)F)c(C(F)(F)F)c1C(=O)Nc1ccc(Cl)c(C(=O)NC2CC2)c1 [Ik-217] | 3.63^a) | –
Cn1nc(OCC(F)(F)F)c(I)c1C(=O)Nc1ccc(Cl)c(C(=O)NCC(F)(F)F)c1 [Ik-244] | 3.24^a) | –
Cn1nc(-c2ccc(F)cc2)c(Br)c1C(=O)Nc1ccc(Cl)c(C(=O)NC2CC2)c1 [Ik-248] | 3.04^a) | –
Cn1nc(OC(F)F)c(Cl)c1C(=O)Nc1ccc(Cl)c(C(=O)NC2CC2)c1 [Ik-238] | 2.52^a) | –
Cn1nc(C(F)(F)F)c(C(F)(F)F)c1C(=O)O [1-Methyl-3,4-bis(trifluoromethyl)-1H-pyrazole-5-carboxylic acid] | – | chromatographic logP [1]: 1.47
CN(C(=O)c1c(C(F)(F)F)c(C(F)(F)C(F)(F)F)nn1C)c1ccc(Cl)c(C(=O)NCC(F)(F)F)c1 [Ik-133] | 3.66^a) | –
Cn1nc(OCC(F)(F)F)cc1C(=O)Nc1ccc(Cl)c(C(=O)NCC(F)(F)F)c1 [Ik-246] | 2.92^a) | –
Cn1nc(C(F)(F)C(F)(F)F)c(C(F)(F)F)c1C(=O)Nc1ccnc(C(=O)NC2CC2(F)F)c1 (stereo not drawn) [Ik-130, N-[2-(2,2-Difluorocycloprop-1-ylcarbamoyl)pyrid-4-yl]-1-methyl-3-(pentafluoroethyl)-4-(trifluoromethyl)-1H-pyrazole-5-carboxamide] | – | chromatographic logP [1]: 3.59; chromatographic logP [2]: 3.59
CC(C)NC(=O)c1cccc(NC(=O)c2c(C(F)(F)F)c(C(F)(F)C(F)(F)F)nn2C)c1Cl [Ik-77] | 3.47^a) | –
Cn1nc(C(F)(F)C(F)(F)F)c(C(F)(F)F)c1C(=O)Nc1cc(C(=O)NC2CC2)c(F)cc1F [Ik-145] | 3.32^a) | –
Cn1nc(C(F)(F)C(F)(F)F)c(C(F)(F)F)c1C(=O)Nc1cc(F)c(F)c(C(=O)NC2CC2)c1F [Ik-169] | 3.53^a) | –
Cn1nc(C(F)(F)C(F)(F)F)c(C(F)(F)F)c1C(=O)Nc1cc(C(=O)NCc2ccccc2)c(Cl)cc1Cl [Ik-150] | 4.23^a) | –
